In series [1] the test system is peripheral leukocytes. Nature of the series: γ-H2AX immunofluorescence, DSS colitis. The class given is in vivo, mouse. The source says: (§1) Immunofluorescence. […] Samples were then processed on coverslips essentially as described elsewhere (26).
For series [2], the system named is peripheral leukocytes. Nature of the series: 8-oxoguanine and nitrotyrosine immunofluorescence, DSS colitis. The class given is in vivo, mouse. The settings on record: DSS 7 days, 3% w/v; p<0.01.
Description: as §1
8-oxoguanine is an oxidative DNA lesion formed by reaction of hydroxyl radicals, metal hyrdroperoxides, or peroxynitrite with DNA, causing G:C to T:A transversions during replication (33). Nitrotyrosine is a biochemical marker for NO-induced peroxynitrite formation involving reactions with reactive oxygen and nitrogen species resulting in nitrative damage to proteins (34).

For the next series, the system named is erythroblasts. Nature of the series: In vivo micronucleus assay in Atm−/−, Atm+/− and wildtype mice with DSS colitis. The settings on record: all genotypes, more severe in Atm−/−. Also on record: species or system mouse. The method, then:
In vivo micronucleus assay. […] At least 4000 mature erythrocytes were counted per animal, and the frequency of MN formation was calculated as the number of micronucleated erythrocytes per 1000 normochromatic erythrocytes.

For the next series, the system named is mice. Nature of the series: Disease activity index in DSS-induced experimental colitis. The class given is in vivo. Here is the method: Induction of chemical colitis. […] Acute colitis was defined as a 7 day treatment, and chronic colitis as any further treatment including remission periods. Control animals received sterile acidified water only. Symptoms (weight loss, stool consistency, gross bleeding) were recorded daily for calculation of disease activity index (23).
Evaluation of Experimental Colitis. The disease activity index (DAI) is the average combined score of weight loss (0-4), stool consistency (0-4), and bleeding (0-4), used to score clinical symptoms (23).

For series [3], the system named is peripheral leukocytes. As to the kind of experiment: Alkaline comet assay with and without hOgg1 incubation, DSS colitis. The class given is in vivo, mouse. The source says: Blood collection. […] Identical blood samples were used for genotoxic endpoints as well as for cytokine expression.
Alkaline comet assay. […] Frozen blood was further diluted 1:15 in PBS before further preparation.
Determination of oxidative DNA damage. The enzyme hOgg1-modified comet assay was used for determination of oxidative DNA damage (25). […] (New England Biolabs, Ipswich, Mass.).

The next series relates to peripheral blood T-cells. Nature of the series: Flow cytometry of activated T-cells (CD69, CD44) in peripheral blood, DSS colitis. The class given is in vivo, mouse. The settings on record: in response to DSS treatment. The source says: Flow Cytometry. T cell populations were characterized for activation status (CD69 and CD44) and CD4 or CD8α expression using flow cytometry. Erythrocytes were immediately lysed with BD PharmLyse Lysis Buffer (BD Biosciences, San Diego, Calif.). After washing with Stain Buffer with 0.2% BSA (BD), cells were stained with FITC conjugated Hamster Anti-Mouse CD69, FITC conjugated Rat Anti-Mouse/Human CD44, R-PE conjugated Rat Anti-Mouse CD4, PerCP Rat Anti-Mouse CD8α, or appropriate negative isotype controls (BD Biosciences) for 30 min at 4° C. Cells were then washed and analyzed using BD FACScan. Fluorescence intensity was normalized to each respective isotype control antibody and data were analyzed with CellQuest® (BD Biosciences). Dead cells were excluded by gating on forward/side scatter. Marker expression was recorded either as percent positive of the absolute count of total T cells, or by median fluorescence intensity if the control and marker populations overlapped.
On the technique in general: In flow cytometry, cells or beads pass a laser one at a time.

For series [4] the following is noted: literature references; cited from earlier work.
The subject of series [5] is peripheral leukocytes. The settings on record: mouse, in vivo.
Description: Alkaline comet assay. To detect DNA strand breaks, as well as alkali labile sites in DNA, the alkaline comet assay was performed as described elsewhere (4). Frozen blood or single cell suspensions were thawed on ice and further diluted 1:15 in PBS before further sample preparation. After lysis and electrophoresis, gels were stained with SYBR Gold (Molecular Probes) and visualized under a fluorescent microscope (Olympus Ax70, Tokyo, Japan) at 10× magnification. Comet images were captured and analyzed with the CASP image analysis program (http://casp.sourceforge.net). The olive tail moment, which represents both tail length and fraction of DNA in the tail, was used for data collection and analysis, in which apoptotic cells were excluded under previously proposed criteria (4).
Injection of cytokines. Mouse TNF-α (Sigma) and/or mouse IL-1β (Sigma) were injected via the tail vein at 500 ng/mouse and 100 ng/mouse, respectively, dissolved in saline. Control animals received vehicle only. Peripheral blood was collected at 1 hr, 2 hrs, 4 hrs, and 24 hrs after injection for genotoxicity assays.
In series [6] the test system is normochromatic erythrocytes. As to the kind of experiment: Micronucleus assay after cytokine injection. In kind it is in vivo, mouse. The settings on record: 48 hours post-injection compared to before injection. The method, then:
In vivo micronucleus assay. Micronucleus formation was determined in normochromatic erythrocytes as micronucleated normochromatic erythrocytes per 1000 normochromatic erythrocytes as described previously (1, 8).
Injection of cytokines. […] Control animals received vehicle only.

“Also recorded” adds a separate entry of the source. Where only a bound is given, the exact number is not on record here.

Turning to dextran sulfate sodium [DSS], the “Percentage of cells positive for γ-H2AX nuclear foci” value in the series on peripheral leukocytes [1] (after the first 7 day acute DSS treatment vs non-treated, p<0.01) is listed as “increased dramatically”; in the series on peripheral leukocytes [1] (later cycles until end of treatment vs non-treated, p<0.05), “remained elevated over non-treated animals until end of treatment”. Besides, the “8-oxoguanine and nitrotyrosine positive peripheral leukocytes” value with peripheral leukocytes [2] is “significant increase in both 8-oxoguanine and nitrotyrosine”. Besides, the “Micronucleus formation in erythroblasts (toxicity of inflammation)” value in the series with erythroblasts is listed as “evident as early as after the acute 7 day treatment”. In addition, the Mortality result in the series with mice (after three cycles of DSS treatment, wildtype mice) is listed as “no mortalities were observed”. Moreover, the “Start of rectal bleeding” value in the series with mice (cycle 1 of 3% DSS treatment) amounted to 4 days. Moreover, the “Mean olive tail moment (DNA single and double strand breaks, alkali-labile sites)” value in the series with peripheral leukocytes [3] (DSS treated vs non-treated mice, end of each cycle, p<0.01) is listed as “significantly higher olive tail moments at the end of each cycle”. Also, in the series with peripheral leukocytes [3] (after treatment cycles, treated vs hOgg1 incubated non-treated mice, p<0.05), the “Mean olive tail moment with hOgg1 incubation (oxidative base damage)” value was “higher when incubated with hOgg1 after treatment cycles”. Further, in the series with peripheral blood T-cells, the “Proportion of activated (CD69+, CD44+) T-cells, Atm−/− vs wildtype mice” value is on record as “significantly larger proportion of these T-cells are activated”. Further, in series [4], the “Mutagenicity / direct genotoxicity of DSS itself” value is given as “not directly genotoxic; also recorded: not a mutagen nor genotoxic”.

In the case of TNF-α, in the series on peripheral leukocytes [5], the “Sufficiency to induce genotoxicity to peripheral leukocytes” value is recorded as “sufficient to induce genotoxicity” and the “Time post-injection within which DNA damage was repaired” value is at most 24 h. In series [6], the “Micronuclei formation in circulating normochromatic erythrocytes” value was “minimally yet significantly elevated”.

B1: IL-1β: mouse IL-1β (Sigma) injected via the tail vein at 100 ng/mouse (protein, UniProt P10749 118-269, looked up)
Interleukin-1 beta: VPIRQLHYRLRDEQQKSLVLSDPYELKALHLNGQNINQQVIFSMSFVQGEPSNDKIPVALGLKGKNLYLSCVMKDGTPTLQLESVDPKQYPKKKMEKRFVFNKIEVKSKVEFESAEFPNWYISTSQAEHKPVFLGNNSGQDIIDFTMESVSS
For B1, the “Time post-injection within which DNA damage was repaired” value with peripheral leukocytes [5] is at most 24 h.

The values above are taken from patent publication US8940491B2, “Genotoxicity as a biomarker for inflammation” (The Regents of the University of California, priority 2009, dated 2015).
